Reference: PMC3336786 (The FASEB Journal, 2012)
Positions count from the first letter of the chain named.

What was measured:
[1] = molecular target: T1, RDLA2'V (Drosophila melanogaster, UniProt P25123, A301V); experiment: cell-based; assay type: cell-based
T1 sequence (P25123 45-606 A301V): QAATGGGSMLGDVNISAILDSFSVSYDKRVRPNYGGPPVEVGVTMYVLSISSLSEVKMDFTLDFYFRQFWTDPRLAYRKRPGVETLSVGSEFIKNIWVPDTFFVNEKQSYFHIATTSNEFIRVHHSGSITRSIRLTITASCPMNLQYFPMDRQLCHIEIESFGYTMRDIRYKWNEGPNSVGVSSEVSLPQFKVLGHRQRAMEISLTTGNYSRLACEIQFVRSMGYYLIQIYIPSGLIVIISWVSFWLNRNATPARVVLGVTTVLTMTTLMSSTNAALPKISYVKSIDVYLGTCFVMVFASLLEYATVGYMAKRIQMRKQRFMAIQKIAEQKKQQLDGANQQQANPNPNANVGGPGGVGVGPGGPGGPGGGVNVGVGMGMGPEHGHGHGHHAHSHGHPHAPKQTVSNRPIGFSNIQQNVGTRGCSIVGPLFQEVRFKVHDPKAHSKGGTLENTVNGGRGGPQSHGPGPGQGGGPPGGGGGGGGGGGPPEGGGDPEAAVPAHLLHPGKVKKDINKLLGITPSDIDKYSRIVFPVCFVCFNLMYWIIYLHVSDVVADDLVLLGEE

[2] = molecular target: T2, RDLT6'V (Drosophila melanogaster, UniProt P25123, T305V); experiment: Two-electrode voltage clamp of RDLT6'V mutant receptors in Xenopus oocytes; assay type: cell-based
T2 sequence (P25123 45-606 T305V): T1 sequence (P25123 45-606 A301V) with V257A, T261V

Structure (SMILES) | IC50 [1] [µM] | IC50 [2] [µM]
CC(C)(C)[C@]1(O)CC2OC(=O)CC23C(=O)OC2OC(=O)[C@H](O)C231 (stereo partly shown) [BB, bilobalide] | 224 | > 1000
C[C@@H]1C(=O)O[C@H]2C[C@@]34[C@H]5C[C@@H](C(C)(C)C)[C@]36[C@@H](OC(=O)[C@@H]6O)O[C@@]4(C(=O)O5)[C@]21O [GA, ginkgolide A] | 360 | > 1000
